Source: patent US20250049679A1, “FORMULATIONS OF ERIODICTYOL” (DEBUT BIOTECHNOLOGY, INC., priority 2023, published 2025)
“Also recorded” adds a separate entry of the source.

Assays:
[1] = target: T1, human neutrophil elastase (Homo sapiens, UniProt P08246); assay: Elastase enzyme inhibition; format: biochemical
T1 sequence (P08246 30-267): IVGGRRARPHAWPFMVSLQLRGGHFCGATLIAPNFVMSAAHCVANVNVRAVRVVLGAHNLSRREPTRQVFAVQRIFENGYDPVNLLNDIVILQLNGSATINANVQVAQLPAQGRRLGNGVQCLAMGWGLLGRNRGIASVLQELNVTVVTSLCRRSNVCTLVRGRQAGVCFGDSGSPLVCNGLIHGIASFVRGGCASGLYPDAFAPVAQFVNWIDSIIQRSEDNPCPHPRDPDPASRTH
Procedure: The assay was conducted to evaluate the elastase enzyme inhibition activity of compositions comprising eriodictyol. Neutrophil infiltration and neutrophil elastase are both increased in the skin in response to UV stress. […] Therefore, inhibition of this enzyme, particularly in combination with antioxidant activity, is effective in delaying wrinkle development and aiding in maintaining skin integrity. This assay is measures release of 4-nitroaniline from an Me-Suc-[…] by human neutrophil elastase and can be quantified at 405 nm by comparing to solvent control.

macrophage cells = conditions: cited from earlier work
[2] = Stability of eriodictyol in dimethyl isosorbide; format: physicochemical
Description: Thus, the compositions of the invention will also be stable for storage for at least 2 years under ambient conditions.

[3] = Solubility of eriodictyol in solvents; format: physicochemical
Nrf2/HO-1 pathway = conditions: mice, acting on the Nrf2/HO-1 pathway; Li et al. 2022; cited from earlier work
[4] = tested on: ATP12A (ATPase H+/K+ transporting non-gastric alpha2 subunit); assay: Gene modulation; format: cell-based
Description: (§1) Table 9, provided below, incorporates the gene modulation data for formulations comprising eriodictyol.

[5] = tested on: MMP10 (matrix metallopeptidase 10); assay: Gene modulation; format: cell-based
Description: as §1

IL24 (Interleukin 24) = assay: Gene modulation; format: cell-based
Description: as §1

FN1 (fibronectin 1) = assay: Gene modulation; format: cell-based
Description: as §1

[6] = tested on: PPFIA4 (PTPRF interacting protein alpha 4); assay: Gene modulation; format: cell-based
Description: as §1

THBS1 (thrombospondin 1) = assay: Gene modulation; format: cell-based
Description: as §1

[7] = tested on: SLC13A5 (Solute carrier family 13 member 5); assay: Gene modulation; format: cell-based
Description: as §1

[8] = tested on: MKI67 (marker of proliferation Ki-67); assay: Gene modulation; format: cell-based
Description: as §1

[9] = tested on: ALDH1A3 (aldehyde dehydrogenase 1 family member A3); assay: Gene modulation; format: cell-based
Description: as §1

[10] = tested on: MMP1 (matrix metallopeptidase 1); assay: Gene modulation; format: cell-based
Description: as §1

[11] = tested on: TNF (Tumor Necrosis Factor); assay: Gene modulation; format: cell-based
Description: as §1

IL6 (Interleukin 6) = assay: Gene modulation; format: cell-based
Description: as §1

[12] = tested on: MMP3 (Matrix Metallopeptidase 3); assay: Gene modulation; format: cell-based
Description: as §1

[13] = tested on: KCTD4 (potassium channel tetramerization domain containing 4); assay: Gene modulation; format: cell-based
Description: as §1

IL23A (Interleukin 23) = assay: Gene modulation; format: cell-based
Description: as §1

[14] = tested on: TFPI2 (tissue factor pathway inhibitor 2); assay: Gene modulation; format: cell-based
Description: as §1

[15] = tested on: TOP2A (DNA topoisomerase II alpha); assay: Gene modulation; format: cell-based
Description: as §1

[16] = tested on: MMP9 (Matrix Metallopeptidase 9); assay: Gene modulation; format: cell-based
Description: as §1

FST (follistatin) = assay: Gene modulation; format: cell-based
Description: as §1

[17] = DPPH antioxidant activity assay (organic medium); format: biochemical; conditions: for % Radical Inhibition: DPPH
Description: The 2,2-diphenyl-1-picrylhydrazyl (DPPH) antioxidant assay is designed to evaluate the antioxidant activity of compositions comprising eriodictyol in an organic medium. […] In the presence of an antioxidant DPPH is reduced, resulting in the formation of a colorless solution. Reduction of absorbance at 517 nm is standardized to solvent control as an indication of DPPH scavenging.

ICR mice = conditions: mouse skin; Park et al. 2013; cited from earlier work
melanoma cells = conditions: cited from earlier work
tyrosinase = tyrosinase (Mus musculus, UniProt P11344); conditions: cited from earlier work
TRPV1 receptors = TRPV1 receptors (Homo sapiens, UniProt Q8NER1); conditions: acting on TRPV1 receptors; Deng et al. 2020; cited from earlier work
Keratinocytes = conditions: skin; cited from earlier work
[18] = Glycation inhibition assay; format: biochemical; conditions: for % Enzyme Inhibition: glycation
Procedure: The assay was conducted to evaluate the glycation inhibition activity of compositions comprising eriodictyol. Nonenzymatic glycation can occur when glucose reacts with proteins, forming a Schiff base intermediate that subsequently undergoes Amadori rearrangement to form glycosylated proteins, when they react with skin proteins to form Advanced Glycation End products (AGE). AGE formation can result in loss of skin elasticity and impaired cellular function. The glycation inhibition ability of a compound is measured by change in fluorescence at excitation/emission of 360 nm/420 nm relative to solvent control.

[19] = ABTS antioxidant assay (aqueous medium); format: biochemical; conditions: for % Radical Inhibition: ABTS
Description: ABTS+ solution is generated as a free radical and used to measure relative ability of a compound to scavenge free radicals. Reduction of the absorbance at 734 nm was standardized to solvent control as an indication of ABTS+ scavenging.

TRPV1 receptors, sequence (Q8NER1 whole entry): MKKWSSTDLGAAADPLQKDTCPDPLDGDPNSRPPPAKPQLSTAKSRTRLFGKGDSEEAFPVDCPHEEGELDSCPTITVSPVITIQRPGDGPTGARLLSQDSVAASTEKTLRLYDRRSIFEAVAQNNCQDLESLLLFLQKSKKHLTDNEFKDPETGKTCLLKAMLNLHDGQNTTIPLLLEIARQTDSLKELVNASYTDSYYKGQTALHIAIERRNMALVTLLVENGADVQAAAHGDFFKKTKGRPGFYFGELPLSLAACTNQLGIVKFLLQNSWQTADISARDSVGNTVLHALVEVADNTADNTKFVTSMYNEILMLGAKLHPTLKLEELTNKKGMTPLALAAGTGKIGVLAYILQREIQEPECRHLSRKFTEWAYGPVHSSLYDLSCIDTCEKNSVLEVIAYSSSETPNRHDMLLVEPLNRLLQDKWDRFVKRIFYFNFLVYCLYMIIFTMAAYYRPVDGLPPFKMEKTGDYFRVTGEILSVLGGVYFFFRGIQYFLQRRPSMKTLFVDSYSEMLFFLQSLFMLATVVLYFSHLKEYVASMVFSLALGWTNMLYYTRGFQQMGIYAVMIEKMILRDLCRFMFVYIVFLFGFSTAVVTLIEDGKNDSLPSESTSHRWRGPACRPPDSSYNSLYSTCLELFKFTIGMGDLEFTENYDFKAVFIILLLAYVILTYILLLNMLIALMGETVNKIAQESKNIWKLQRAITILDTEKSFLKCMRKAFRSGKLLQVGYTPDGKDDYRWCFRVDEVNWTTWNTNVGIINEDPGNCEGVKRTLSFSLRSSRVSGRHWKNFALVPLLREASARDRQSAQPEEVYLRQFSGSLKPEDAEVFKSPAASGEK
tyrosinase, sequence (P11344 19-533): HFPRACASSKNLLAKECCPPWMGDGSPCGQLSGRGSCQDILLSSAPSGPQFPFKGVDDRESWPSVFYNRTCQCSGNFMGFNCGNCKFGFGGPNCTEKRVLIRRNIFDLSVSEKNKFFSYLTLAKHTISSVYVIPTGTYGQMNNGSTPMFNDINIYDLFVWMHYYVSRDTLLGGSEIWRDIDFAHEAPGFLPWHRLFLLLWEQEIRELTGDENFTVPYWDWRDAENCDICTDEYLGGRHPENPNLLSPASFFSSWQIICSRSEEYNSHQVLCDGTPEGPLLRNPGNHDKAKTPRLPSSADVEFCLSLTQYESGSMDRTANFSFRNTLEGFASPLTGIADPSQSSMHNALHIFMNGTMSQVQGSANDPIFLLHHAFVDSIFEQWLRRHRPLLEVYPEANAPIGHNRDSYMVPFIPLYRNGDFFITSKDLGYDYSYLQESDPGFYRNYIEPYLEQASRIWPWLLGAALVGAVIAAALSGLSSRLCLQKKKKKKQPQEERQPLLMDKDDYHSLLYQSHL

## O=C1C[C@@H](c2ccc(O)c(O)c2)Oc2cc(O)cc(O)c21 [eriodictyol]
[1]
  Lowest concentration inhibiting elastase enzyme activity: 0.008 % w/w
[1]; calculated
  IC50 elastase enzyme inhibition: 0.107 % w/w
[1]; elastase, eriodictyol 0.008 % w/w
  inhibition at 0.008 % strength: 17.6%
[1]; elastase, eriodictyol 0.04 % w/w
  inhibition at 0.04 % strength: 23.1%
[1]; elastase, eriodictyol 0.2 % w/w
  inhibition at 0.2 % strength: 58.1%
Macrophage cells
  Anti-inflammatory activity: inflammatory markers: decrease inflammatory markers
[2]; 4 C.
  30 day % remaining: 104.66%
  90 day % remaining: 97.15%
[2]; 25 C.
  30 day % remaining: 100.78%
  90 day % remaining: 91.72%
  180 day % remaining: 90.30%
[2]; 40 C.
  30 day % remaining: 93.53%
  90 day % remaining: 98.06%
[2]; 50 C.
  30 day % remaining: 95.73%
[3]; in Caprylic/Capric Triglyceride
  Solubility (% w/w): only minimally soluble; also recorded: Not soluble
[3]; in Helianthus Annuus (Sunflower) Seed Oil
  Solubility (% w/w): insoluble; also recorded: Not soluble
[3]; in Pentylene Glycol
  Solubility (% w/w): only minimally soluble; also recorded: Not soluble
[3]; in oil
  Solubility: poorly soluble or insoluble
[3]; in water
  Solubility: poorly soluble or insoluble
Nrf2/HO-1 pathway
  Cognitive decline: decreases cognitive decline
[4]
  Treatment (gene expression level): 76.4
[4]; treatment vs control
  Fold Change: −11.3
[5]; MMP10
  Treatment (gene expression level): 106.9
[5]; MMP10, treatment vs control
  Fold Change: −24.3
IL24 (Interleukin 24); IL24
  Treatment (gene expression level): 1.2
IL24 (Interleukin 24); IL24, treatment vs control
  Fold Change: −73.5
FN1 (fibronectin 1); FN1
  Treatment (gene expression level): 146.9
FN1 (fibronectin 1); FN1, treatment vs control
  Fold Change: −12.1
[6]; PPFIA4
  Treatment (gene expression level): 628.6
[6]; PPFIA4, treatment vs control
  Fold Change: 27.9
THBS1 (thrombospondin 1); THBS1
  Treatment (gene expression level): 344.3
THBS1 (thrombospondin 1); THBS1, treatment vs control
  Fold Change: −16.0
[7]; SLC13A5
  Treatment (gene expression level): 5.9
[7]; SLC13A5, treatment vs control
  Fold Change: −13.9
[8]; MKI67
  Treatment (gene expression level): 78.7
[8]; MKI67, treatment vs control
  Fold Change: −10.6
[9]; ALDH1A3
  Treatment (gene expression level): 168.0
[9]; ALDH1A3, treatment vs control
  Fold Change: −9.8
[10]; MMP1
  Treatment (gene expression level): 972.9
[10]; MMP1, treatment vs control
  Fold Change: −11.3
[11]
  Treatment (gene expression level): 0.0
[11]; treatment vs control
  Fold Change: −256.0
IL6 (Interleukin 6); IL6
  Treatment (gene expression level): 1.2
IL6 (Interleukin 6); IL6, treatment vs control
  Fold Change: −19.7
[12]; MMP3
  Treatment (gene expression level): 8.2
[12]; MMP3, treatment vs control
  Fold Change: −48.5
[13]; KCTD4
  Treatment (gene expression level): 36.4
[13]; KCTD4, treatment vs control
  Fold Change: −14.9
IL23A (Interleukin 23)
  Treatment (gene expression level): 5.9
IL23A (Interleukin 23); treatment vs control
  Fold Change: −6.1
[14]; TFPI2
  Treatment (gene expression level): 34.1
[14]; TFPI2, treatment vs control
  Fold Change: −17.1
[15]
  Treatment (gene expression level): 37.6
[15]; treatment vs control
  Fold Change: −18.4
[16]; MMP9
  Treatment (gene expression level): 527.6
[16]; MMP9, treatment vs control
  Fold Change: −8.6
FST (follistatin)
  Treatment (gene expression level): 96.4
FST (follistatin); treatment vs control
  Fold Change: −9.8
[17]; eriodictyol 0.00007 % w/w
  % Radical Inhibition: 21.22%
[17]; eriodictyol 0.00046 % w/w
  % Radical Inhibition: 81.45%
[17]; eriodictyol 0.00278 % w/w
  % Radical Inhibition: 81.95%
[17]; organic solvent system, calculated
  IC50 antioxidant activity: 0.0002 % w/w
[17]; organic solvent systems
  Lowest concentration demonstrating antioxidant activity: 0.00007 % w/w
ICR mice
  Symptoms of atopic dermatitis: alleviating symptoms of atopic dermatitis
Melanoma cells
  Melanogenesis: decreases melanogenesis
tyrosinase
  Tyrosinase inhibition: inhibiting tyrosinase
TRPV1 receptors
  Neuroinflammation and hypererythema: reduces neuroinflammation and relieves hypererythema
Keratinocytes
  Protection from UVA-induced photodamage and apoptosis: protecting skin from UVA-induced photodamage and apoptosis
[18]
  Lowest concentration inhibiting glycation: 0.002 % w/w
[18]; calculated
  IC50 glycation inhibition: 0.0088 % w/w
[18]; eriodictyol 0.002 % w/w
  % Enzyme Inhibition: 38.43%
[18]; eriodictyol 0.007 % w/w
  % Enzyme Inhibition: 86.18%
[18]; eriodictyol 0.022 % w/w
  % Enzyme Inhibition: 90.26%
[19]; eriodictyol 0.00016 % w/w
  % Radical Inhibition: 11.00%
[19]; eriodictyol 0.0008 % w/w
  % Radical Inhibition: 58.72%
[19]; eriodictyol 0.004 % w/w
  % Radical Inhibition: 92.97%
[19]; aqueous solvent system, calculated
  IC50 antioxidant activity: 0.00062 % w/w
[19]; aqueous systems
  Lowest concentration demonstrating antioxidant activity: 0.00016 % w/w
